Measurements as given in PubChem BioAssay AID742 (SRMLSC, 2007).
Activity calls are given as the source filed them. How the calls were made is not given here.

Columns and labels:
[1] = system: human cells, Her2 expression AlphaScreen; CTG viability; assay: inhibitors of Her2 kinase expression, dose response, cell-based, AlphaScreen, CellTiter-Glo viability (AID 742); settings: viability, CellTiter-Glo
[2] = as above; settings: human cells, Her2 expression AlphaScreen; CTG viability; at 9.62 µM (top of the series)

Compound	EC50 [1] [µM]	Her2 inhibition [2]
CCn1c(=N)n(CC(=O)C23CC4CC(CC(C4)C2)C3)c2ccccc21	> 9.62	-15.5% (inactive)
N=c1n(CCO)c2ccccc2n1CCOc1ccc(Cl)cc1Cl	> 9.62	-2.09% (inactive)
CCCc1[nH]nc2c1C(c1ccc(OC)c(Cn3nc(C)c(Br)c3C)c1)C(C#N)=C(N)O2 (stereo not given)	> 9.62	-0.44% (inactive)
COC(=O)/C=C/S(=O)(=O)c1ccc(NC(C)=O)cc1	> 9.62	20.9% (inactive)
Cc1ccc(NC(=O)CNc2cccc(C)c2C)c(C)c1	> 9.62	-12.6% (inactive)
O=C(NCCCc1ccccc1)c1ccncc1	> 9.62	-8.4% (inactive)
O=S(=O)(Nc1ccc2c(c1)CCC2)c1cccs1	> 9.62	10.2% (inactive)
O=C1C2ON(c3ccccc3)C(c3cccnc3)C2C(=O)N1c1ccc(Cl)c(Cl)c1 (stereo not given)	> 9.62	-16.1% (inactive)
CCCS(=O)(=O)N1CCC(C(=O)N2CCC(Cc3ccccc3)CC2)CC1	> 9.62	-12.4% (inactive)
N#CCSc1nc2cc(C(=O)N3CCC(C(N)=O)CC3)ccc2c2nc3ccccc3n12	> 9.62	5.14% (inactive)
Cc1cc(NC(=O)CCCS(=O)(=O)c2nc(-c3cccs3)cc(C(F)(F)F)n2)no1	> 9.62	18.9% (inactive)
O=C(CCn1[nH]c(=O)c2ccccc2c1=O)OC1CCCCC1	> 9.62	-7.62% (inactive)
C#CCOC(=O)c1ccccc1C(=O)OCC#C	> 9.62	-22.6% (inactive)
O=C(Nc1nccs1)C1C2/C=C\CCCCC21 (stereo not given)	> 9.62	-0.67% (inactive)
O=S(=O)(CCSc1nc2ccccc2o1)c1nc2ccccc2s1	> 9.62	-10.1% (inactive)
O=C(c1ccco1)N(Cc1ccco1)c1ccc(O)cc1	> 9.62	-0.36% (inactive)
O=C(Nc1ccccc1NC(=O)NC1CCCCC1)NC1CCCCC1	> 9.62	-1.72% (inactive)
COc1ccc(CCN2CCC(Nc3nc4ccccc4n3Cc3ccc(F)cc3)CC2)cc1	> 9.62	-28.9% (inactive)
COc1ccc(/C=C/C(O)=C2/C(=O)N(C)C3(C)CC2c2ccccc2O3)cc1 (stereo not given)	> 9.62	23.7% (inactive)
O=S(=O)(CCSc1ccccn1)c1nc2ccccc2s1	> 9.62	12.7% (inactive)
CCOc1cc(C(=O)NCCOC)ccc1OC	> 9.62	-7.59% (inactive)
Cc1nc2cc(S(=O)(=O)C(F)(F)F)ccc2s1	> 9.62	-23.9% (inactive)
COC(=O)CSc1cc(SCC(=O)OC)c(C#N)c(SCC(=O)OC)c1	> 9.62	6.74% (inactive)
CCOC(=O)C(C(C)=O)c1c(Br)c(O)c(O)c2c(C(=O)c3ccc(C)cc3)coc12 (stereo not given)	> 9.62	46.1% (inactive)
CC(C)NCC(O)Cn1c2c(c3ccccc31)CCc1c-2cnn1-c1ccccc1 (stereo not given)	> 9.62	11.7% (inactive)
CCc1ccc2oc(-c3cc(N=Cc4cccc(OC)c4O)ccc3O)nc2c1	> 9.62	20.2% (inactive)
C=CCN=C(NC#N)SCc1ccccc1Cl	> 9.62	0.27% (inactive)

Compound	EC50 [1] [µM]	Her2 inhibition [2]
CCSC1(SCC)N=C(N)C2(C#N)C(c3ccc(OC)c(OC)c3OC)C12C#N (stereo not given)	> 9.62	6.24% (inactive)
Cn1nc(C(=O)Nc2c(-c3ccccc3)nc3sccn23)c2ccccc2c1=O	> 9.62	-13.2% (inactive)
c1cnc(-c2nnc3n2CCCCC3)cn1	> 9.62	5.42% (inactive)
CCOc1ccccc1NC(=O)Cn1nnc(-c2ccc(OCC)c(OCC)c2)n1	> 9.62	-13.9% (inactive)
Cc1ccc(C(CC(=O)c2ccco2)SCCO)cc1 (stereo not given)	> 9.62	10.4% (inactive)
COCCCN1C(=O)C(O)=C(C(C)=O)C1c1cccc(F)c1 (stereo not given)	> 9.62	-2.16% (inactive)
CCc1nc(N)c(C#N)c(-c2cccnc2)c1C	> 9.62	2.53% (inactive)
O=C(CSc1oc(-c2ccccc2)nc1S(=O)(=O)c1ccc(F)cc1)NCC1CCCO1 (stereo not given)	> 9.62	11.4% (inactive)
Cn1c(Cl)cnc1C1CC(=O)c2cc(Cl)ccc2O1 (stereo not given)	> 9.62	15.6% (inactive)
N#CC1=C2SCN(c3ccccc3)CN2C(=O)CC1c1cccs1 (stereo not given)	> 9.62	-27.6% (inactive)
CC(=N\O)/C(CN(C)C)=N/O	> 9.62	-15.9% (inactive)
c1ccc2cc(OCCN3CCCC3)ccc2c1	> 9.62	-36.3% (inactive)
C=C(C)COc1ccc(-c2n[nH]c(C)c2Oc2ccccc2OC)c(O)c1	> 9.62	-8.71% (inactive)
O=c1[nH]c(Nc2nc3ccccc3o2)nc2c1CCCC2	> 9.62	-16.5% (inactive)
Cc1c(-c2cccs2)[n+](=O)c2c(n1[O-])CCCC2	> 9.62	-49% (inactive)
CCCCC(C(=O)O)C(C)CC(=O)Nc1cccc(C(=O)O)c1 (stereo not given)	> 9.62	-10.2% (inactive)
C1CCC(C(CC2CCCCN2)C2CCCCC2)CC1 (stereo not given)	> 9.62	-33.2% (inactive)
COc1ccc2oc(=O)c(-c3nnc(NCc4ccco4)s3)cc2c1	> 9.62	-2.67% (inactive)
CN(C)CCCN1c2ccccc2Sc2ccc(C(F)(F)F)cc21	> 9.62	0.74% (inactive)
CCOC(=O)c1c(C)oc2c1c(C(c1ccncc1)N1CCOCC1)c(O)c1ccccc12 (stereo not given)	> 9.62	23.5% (inactive)
O=C1c2cccc3cccc(c23)C(=O)N1c1nncs1	> 9.62	-25.5% (inactive)
CCCC1C(c2ccccc2)C(C#N)(C#N)C2(C#N)CC1(N)NC2=O (stereo not given)	> 9.62	-6.63% (inactive)
C[C@H]1CCC[C@H](O)CCCCCc2cc(O)cc(O)c2C(=O)O1	> 9.62	3.17% (inactive)
O=C(NCc1cccs1)c1nc2c(nnn2Cc2ccccc2Cl)c(=O)[nH]1	> 9.62	45.2% (inactive)
CC1(C)CC(=O)C2(CC3=C(CC(C)(C)CC3=O)O2)C(=O)C1	> 9.62	-2.95% (inactive)
CCOC(=O)CSc1nnc(-c2ccc(NS(=O)(=O)c3ccc(C)cc3)cc2)o1	> 9.62	7.81% (inactive)
CC(O)CCc1nc2ccc(C(=O)O)cc2[nH]1 (stereo not given)	> 9.62	-23.7% (inactive)

Compound	EC50 [1] [µM]	Her2 inhibition [2]
COc1ccccc1-n1nnnc1S(=O)(=O)Cc1ccc(Cl)cc1	> 9.62	23.5% (inactive)
COc1ccccc1-c1cc(C(F)(F)F)nc(S(=O)(=O)CCCC(=O)NC(C)C)n1	> 9.62	5% (inactive)
Cn1cnc2c1c(=O)[nH]c(=O)n2C	> 9.62	-20.9% (inactive)
CC(C)COC(=O)N1CC(O)CC1C(=O)O (stereo not given)	> 9.62	7.84% (inactive)
CCOC(=O)C(NC(C)=O)(N1CCc2ccccc2C1)C(F)(F)F (stereo not given)	> 9.62	-13.1% (inactive)
Nc1nc(-c2cccs2)c(NC(=O)c2ccccc2)s1	> 9.62	-8.18% (inactive)
COc1ccc(Cl)c(Cn2c(NCc3ccco3)nc3c2c(=O)n(C)c(=O)n3C)c1	> 9.62	0.72% (inactive)
Cc1ccccc1-c1nc(CN2CCC(C(=O)NCCC3=CCCCC3)CC2)c(C)o1	> 9.62	-53.7% (inactive)
Cc1c(NC(=O)c2cccc(F)c2)c(=O)n(-c2ccccc2)n1C	> 9.62	10.6% (inactive)
CCN(CC)c1ccc2c(Cl)c(Br)c(=O)oc2c1	> 9.62	3.42% (inactive)
Cc1ccc(S(=O)(=O)Nc2cccc3ncccc23)s1	> 9.62	14.8% (inactive)
O=S(=O)(NCc1ccco1)c1cccc2cccnc12	> 9.62	-18.5% (inactive)
Cc1nn(C)c(C)c1Sc1ccc(Br)cc1	> 9.62	-6.9% (inactive)
CCCn1c(SCC(=O)Nc2cccc(C)n2)nnc1-c1ccco1	> 9.62	-2.69% (inactive)
O=c1cccc(-c2ccccc2)[nH]1	> 9.62	-24.1% (inactive)
O=C(NCC(=O)N(CCc1ccccc1)C(C(=O)NC1CCCC1)c1cccnc1)c1ccco1 (stereo not given)	> 9.62	-12.6% (inactive)
Nc1nc2n(n1)C(c1cccs1)CC(c1ccc(Br)cc1)N2 (stereo not given)	> 9.62	-10.7% (inactive)
Cc1cc(-c2nnc3n2N=C(c2ccc(-c4ccccc4)cc2)CS3)n[nH]1	> 9.62	-21.4% (inactive)
O=S1(=O)Nc2c(ccc3cccnc23)-c2ccccc21	> 9.62	12.6% (inactive)
Oc1ccc(N=Cc2ccc(-c3cccs3)s2)cc1	< 0.024	37.6% (inactive)
S=C1SCN(CCN2CCOCC2)CN1Cc1ccccc1	> 9.62	-20.1% (inactive)
CCOC(=O)CC(N)c1ccc2c(c1)OCO2 (stereo not given)	> 9.62	-8.02% (inactive)
Cc1cc(C)n(-c2c(F)c(F)c(CN3CCOCC3)c(F)c2F)n1	> 9.62	-10.7% (inactive)
Clc1cccc(-c2nnc(-c3ccccc3)o2)c1	< 0.024	34.8% (inactive)
CCCOc1ccc(C(=O)CCN2CCCCC2)cc1	> 9.62	-16.8% (inactive)
N#C/C(=C/c1ccc(N2CCCCCC2)o1)c1ccc(F)cc1	> 9.62	4.22% (inactive)
